Results taken from patent publication US20080009418A1, “Selective Inhibitors” (Alchemia LTD., priority 2004, published 2008).

Legend:
Human δ-opioid (DOP) = molecular target: T1, Human δ-opioid (DOP) (Homo sapiens, UniProt P41143); assay: Radioligand binding, human δ-opioid (DOP) membranes, FlashPlate, [3H]-Bremazocine; details: compound at 10 μM, [3H]-Bremazocine
T1 construct: purchased Perkin Elmer Biosignal
Procedure, shortened: (§1)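 Cloned human receptor membranes were coated onto FlashPlate wells and incubated with radioligand and compound (added from a 0.5 mM DMSO daughter plate) for 1 hour at room temperature in the dark. Scintillation counting gave percent inhibition, with DMSO defining total and reference ligand defining non-specific binding.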

Human κ-Opioid (KOP) = molecular target: T2, Human κ-Opioid (KOP) (Homo sapiens, UniProt P41145); assay: Radioligand binding, human κ-opioid (KOP) membranes, filtration, [3H]-Diprenorphine; details: compound at 10 μM, [3H]-Diprenorphine
T2 construct: purchased Perkin Elmer Biosignal
Procedure, shortened: (§2)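 Membranes from cloned human receptors were incubated with compound and radioligand for 1 hour at room temperature. Bound ligand was collected on 0.3% PEI-soaked filters, washed with cold 50 mM Tris-HCl pH 7.4, and counted by scintillation. Percent inhibition was computed against DMSO totals and reference-ligand nonspecific wells.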

[1] = molecular target: T3, Human melanin-concentrating hormone (MCH1) (Homo sapiens, UniProt Q99705); assay: Radioligand binding, human melanin-concentrating hormone MCH1 membranes, FlashPlate, [125I]-S36057; details: compound at 10 μM
T3 construct: purchased Perkin Elmer Biosignal
Procedure, shortened: as §1

Human neurokinin (NK1) = molecular target: T4, Human neurokinin (NK1) (Homo sapiens, UniProt P25103); assay: Radioligand binding, human neurokinin NK1 membranes, filtration, [125I]-Substance P; details: compound at 10 μM, [125I]-Substance P
T4 construct: purchased Perkin Elmer Biosignal
Procedure, shortened: as §2

[2] = molecular target: T5, Human neuropeptide Y (NPY-Y1) (Homo sapiens, UniProt P25929); assay: Radioligand binding, human neuropeptide Y NPY-Y1 membranes, FlashPlate, [125I]-PYY; details: compound at 10 μM, [125I]-PYY
T5 construct: purchased Perkin Elmer Biosignal
T5 sequence (P25929 1-384): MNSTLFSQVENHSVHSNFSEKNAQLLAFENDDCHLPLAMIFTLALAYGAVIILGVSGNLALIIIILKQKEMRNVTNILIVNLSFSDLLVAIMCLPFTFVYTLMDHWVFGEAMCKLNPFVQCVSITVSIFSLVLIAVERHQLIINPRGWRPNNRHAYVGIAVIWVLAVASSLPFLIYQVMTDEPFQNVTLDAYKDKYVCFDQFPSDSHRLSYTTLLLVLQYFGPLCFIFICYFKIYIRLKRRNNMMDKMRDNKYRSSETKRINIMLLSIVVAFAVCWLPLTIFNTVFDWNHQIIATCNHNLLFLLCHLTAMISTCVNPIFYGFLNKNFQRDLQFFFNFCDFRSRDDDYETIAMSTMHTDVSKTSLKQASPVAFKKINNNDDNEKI
Procedure, shortened: as §1

Human opioid (ORL1) = molecular target: T6, Human opioid (ORL1) (Homo sapiens, UniProt P41146); assay: Radioligand binding, human opioid ORL1 membranes, FlashPlate, [125I]-Nociceptin; details: compound at 10 μM, [125I]-Nociceptin
T6 construct: purchased Perkin Elmer Biosignal
Procedure, shortened: as §1

Human melanocortin (MC5) = molecular target: T7, Human melanocortin (MC5) (Homo sapiens, UniProt P33032); assay: Radioligand binding, human melanocortin MC5 membranes, FlashPlate, [125I]-NDP-αMSH; details: compound at 10 μM, [125I]-NDP-αMSH
T7 construct: purchased Perkin Elmer Biosignal
Procedure, shortened: as §1

Human μ-opioid (MOP) = molecular target: T8, Human μ-opioid (MOP) (Homo sapiens, UniProt P35372); assay: Radioligand binding, human μ-opioid (MOP) membranes, FlashPlate, [3H]-Naloxone; details: compound at 10 μM, [3H]-Naloxone
T8 construct: purchased Perkin Elmer Biosignal
Procedure, shortened: as §1

Human Melanocortin (MC3) = molecular target: T9, Human Melanocortin (MC3) (Homo sapiens, UniProt P41968); assay: Radioligand binding, human melanocortin MC3 membranes, FlashPlate, [125I]-NDP-αMSH; details: compound at 10 μM, [125I]-NDP-αMSH
T9 construct: purchased Perkin Elmer Biosignal
Procedure, shortened: as §1

Mouse urotensin (mUR2) = molecular target: T10, Mouse urotensin (mUR2) (Mus musculus, UniProt Q8VIH9); assay: Radioligand binding, mouse urotensin mUR2 membranes, FlashPlate, [125I]-Urotensin II; details: compound at 10 μM, [125I]-Urotensin II
T10 construct: purchased Perkin Elmer Biosignal
T10 sequence (Q8VIH9 1-385): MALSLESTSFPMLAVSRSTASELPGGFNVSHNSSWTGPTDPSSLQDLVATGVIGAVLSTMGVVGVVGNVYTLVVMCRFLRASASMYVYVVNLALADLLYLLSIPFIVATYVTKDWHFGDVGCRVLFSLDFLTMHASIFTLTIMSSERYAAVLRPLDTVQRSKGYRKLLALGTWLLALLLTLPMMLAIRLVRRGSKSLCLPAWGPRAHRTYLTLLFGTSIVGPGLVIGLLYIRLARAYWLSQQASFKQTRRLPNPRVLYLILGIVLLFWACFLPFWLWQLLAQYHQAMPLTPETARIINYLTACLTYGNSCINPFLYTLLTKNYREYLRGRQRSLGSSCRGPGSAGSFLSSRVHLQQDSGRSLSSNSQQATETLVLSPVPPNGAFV
Procedure, shortened: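 Cloned mouse urotensin (mUR2) receptor membranes from Perkin Elmer Biosignal were immobilized in FlashPlate microplates using a proprietary coating. Each well got 19.5 μl buffer, then 0.5 μl of DMSO, reference ligand, or compound. Adding 5 μl of [125I]-Urotensin II, diluted to 5× final concentration in binding buffer, started binding. Plates were sealed with TopSeal-A and incubated 1 hour at room temperature in the dark. Wells were counted for 30 seconds each on a TopCount after a 60-second delay, and percentage inhibition was calculated.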

Human Melanocortin (MC4) = molecular target: T11, Human Melanocortin (MC4) (Homo sapiens, UniProt P32245); assay: Radioligand binding, human melanocortin MC4 membranes, FlashPlate, [125I]-NDP-αMSH; details: compound at 10 μM, [125I]-NDP-αMSH
T11 construct: purchased Perkin Elmer Biosignal
Procedure, shortened: as §1

T6 sequence (P41146 whole entry): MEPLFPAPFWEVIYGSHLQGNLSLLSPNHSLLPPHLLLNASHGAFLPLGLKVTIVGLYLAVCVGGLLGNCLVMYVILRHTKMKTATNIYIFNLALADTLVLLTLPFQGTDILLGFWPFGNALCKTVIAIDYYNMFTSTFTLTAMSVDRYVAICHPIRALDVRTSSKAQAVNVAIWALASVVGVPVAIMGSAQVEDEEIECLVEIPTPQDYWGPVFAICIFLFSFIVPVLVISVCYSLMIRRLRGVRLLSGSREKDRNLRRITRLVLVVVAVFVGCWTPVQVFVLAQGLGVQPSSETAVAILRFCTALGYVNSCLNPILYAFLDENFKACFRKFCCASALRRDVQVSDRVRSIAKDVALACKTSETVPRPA
T7 sequence (P33032 whole entry): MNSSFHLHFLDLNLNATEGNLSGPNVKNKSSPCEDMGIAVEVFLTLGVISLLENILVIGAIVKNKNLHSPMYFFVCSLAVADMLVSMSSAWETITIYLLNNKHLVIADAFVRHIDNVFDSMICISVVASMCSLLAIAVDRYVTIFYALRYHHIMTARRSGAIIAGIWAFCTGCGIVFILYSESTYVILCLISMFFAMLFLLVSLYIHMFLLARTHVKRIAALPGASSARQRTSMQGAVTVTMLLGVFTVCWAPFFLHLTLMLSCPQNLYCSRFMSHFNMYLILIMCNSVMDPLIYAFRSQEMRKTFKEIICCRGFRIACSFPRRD
T8 sequence (P35372 whole entry): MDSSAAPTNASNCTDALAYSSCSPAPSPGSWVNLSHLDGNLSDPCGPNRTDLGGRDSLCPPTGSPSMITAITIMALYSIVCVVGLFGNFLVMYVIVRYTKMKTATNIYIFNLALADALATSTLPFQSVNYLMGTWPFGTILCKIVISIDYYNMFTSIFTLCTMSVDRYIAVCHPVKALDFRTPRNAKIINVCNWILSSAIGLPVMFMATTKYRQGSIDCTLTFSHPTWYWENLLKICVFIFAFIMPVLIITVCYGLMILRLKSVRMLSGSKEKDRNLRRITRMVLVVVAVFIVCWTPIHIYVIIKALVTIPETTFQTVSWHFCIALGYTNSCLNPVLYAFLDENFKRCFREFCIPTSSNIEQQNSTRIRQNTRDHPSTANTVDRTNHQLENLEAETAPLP
T4 sequence (P25103 whole entry): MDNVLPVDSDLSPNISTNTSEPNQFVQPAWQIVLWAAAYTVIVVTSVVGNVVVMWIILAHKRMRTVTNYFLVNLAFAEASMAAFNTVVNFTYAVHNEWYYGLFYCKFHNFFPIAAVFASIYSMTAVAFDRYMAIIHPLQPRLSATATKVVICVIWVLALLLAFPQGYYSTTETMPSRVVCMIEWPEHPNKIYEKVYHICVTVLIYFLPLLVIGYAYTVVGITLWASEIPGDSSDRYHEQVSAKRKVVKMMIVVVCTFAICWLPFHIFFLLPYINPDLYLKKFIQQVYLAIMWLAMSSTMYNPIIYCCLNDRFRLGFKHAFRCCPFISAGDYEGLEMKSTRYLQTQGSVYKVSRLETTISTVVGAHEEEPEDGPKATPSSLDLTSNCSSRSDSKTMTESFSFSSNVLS
T2 sequence (P41145 whole entry): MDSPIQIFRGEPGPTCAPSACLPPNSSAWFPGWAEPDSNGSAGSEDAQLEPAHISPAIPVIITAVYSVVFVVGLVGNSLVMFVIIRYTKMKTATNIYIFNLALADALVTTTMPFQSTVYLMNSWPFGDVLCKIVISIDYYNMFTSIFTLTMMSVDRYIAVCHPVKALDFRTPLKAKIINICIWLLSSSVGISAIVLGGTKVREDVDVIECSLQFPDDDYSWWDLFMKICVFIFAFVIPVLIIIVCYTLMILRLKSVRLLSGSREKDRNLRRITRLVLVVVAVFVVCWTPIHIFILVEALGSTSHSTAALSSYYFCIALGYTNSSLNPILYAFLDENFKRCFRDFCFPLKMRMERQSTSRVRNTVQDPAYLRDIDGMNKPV
T3 sequence (Q99705 whole entry): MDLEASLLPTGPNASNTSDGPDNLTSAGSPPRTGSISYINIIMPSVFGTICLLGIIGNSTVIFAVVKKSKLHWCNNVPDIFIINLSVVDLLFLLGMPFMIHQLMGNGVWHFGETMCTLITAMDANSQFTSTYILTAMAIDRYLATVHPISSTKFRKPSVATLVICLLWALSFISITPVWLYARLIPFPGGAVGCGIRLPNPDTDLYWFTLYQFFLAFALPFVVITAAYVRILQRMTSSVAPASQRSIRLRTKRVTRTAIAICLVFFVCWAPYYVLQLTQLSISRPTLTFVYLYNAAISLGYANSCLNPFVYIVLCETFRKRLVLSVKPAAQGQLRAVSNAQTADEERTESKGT
T11 sequence (P32245 whole entry): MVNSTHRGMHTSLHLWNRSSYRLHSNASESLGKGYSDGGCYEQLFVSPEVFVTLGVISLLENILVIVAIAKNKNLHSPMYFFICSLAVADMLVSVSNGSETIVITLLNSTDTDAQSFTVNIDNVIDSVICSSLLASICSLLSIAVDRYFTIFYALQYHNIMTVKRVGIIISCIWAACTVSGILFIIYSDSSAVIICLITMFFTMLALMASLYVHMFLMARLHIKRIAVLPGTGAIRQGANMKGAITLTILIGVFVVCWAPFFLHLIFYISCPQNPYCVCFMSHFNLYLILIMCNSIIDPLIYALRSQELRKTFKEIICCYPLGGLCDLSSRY
T1 sequence (P41143 whole entry): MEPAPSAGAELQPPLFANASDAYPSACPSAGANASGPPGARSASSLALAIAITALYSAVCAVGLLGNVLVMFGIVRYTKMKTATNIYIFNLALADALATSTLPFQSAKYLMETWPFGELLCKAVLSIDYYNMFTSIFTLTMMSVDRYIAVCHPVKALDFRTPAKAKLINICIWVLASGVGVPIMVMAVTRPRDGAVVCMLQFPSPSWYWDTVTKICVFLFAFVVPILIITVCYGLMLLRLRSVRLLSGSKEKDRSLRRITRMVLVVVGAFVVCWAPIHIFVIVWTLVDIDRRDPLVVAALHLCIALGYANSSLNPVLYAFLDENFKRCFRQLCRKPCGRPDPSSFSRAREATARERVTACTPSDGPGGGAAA
T9 sequence (P41968 whole entry): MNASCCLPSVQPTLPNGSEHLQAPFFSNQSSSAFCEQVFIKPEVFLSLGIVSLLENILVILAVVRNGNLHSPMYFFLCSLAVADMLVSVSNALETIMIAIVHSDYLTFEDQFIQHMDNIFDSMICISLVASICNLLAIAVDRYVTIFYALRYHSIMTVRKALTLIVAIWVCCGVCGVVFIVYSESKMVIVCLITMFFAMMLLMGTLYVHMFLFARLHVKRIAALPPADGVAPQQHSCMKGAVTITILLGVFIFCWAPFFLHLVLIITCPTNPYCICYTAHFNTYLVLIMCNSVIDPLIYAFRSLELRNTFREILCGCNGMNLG

NCCCC(=O)NC1C(OCc2ccccc2)OC(COCc2ccc(Cl)cc2)C(O)C1OCc1ccccc1 (stereo not shown) [compound 380]
A1: inhibition of radioligand binding (Human δ-opioid (DOP); human DOP membranes): − (“−” indicates less than 50% inhibition at 10 μM)
A2: inhibition of radioligand binding (Human κ-Opioid (KOP); human KOP membranes): − (“−” indicates less than 50% inhibition at 10 μM)
A6: inhibition of radioligand binding ([1]; [125I]-S36057, human MCH1 membranes): − (“−” indicates less than 50% inhibition at 10 μM)
A8: inhibition of radioligand binding (Human neurokinin (NK1); human NK1 membranes): + (“+” indicates greater than 50% inhibition at 10 μM)
A9: inhibition of radioligand binding ([2]; human NPY-Y1 membranes): − (“−” indicates less than 50% inhibition at 10 μM)
A10: inhibition of radioligand binding (Human opioid (ORL1); human ORL1 membranes): − (“−” indicates less than 50% inhibition at 10 μM)
A5: inhibition of radioligand binding (Human melanocortin (MC5); human MC5 membranes): − (“−” indicates less than 50% inhibition at 10 μM)
A7: inhibition of radioligand binding (Human μ-opioid (MOP); human MOP membranes): − (“−” indicates less than 50% inhibition at 10 μM)
A3: inhibition of radioligand binding (Human Melanocortin (MC3); human MC3 membranes): − (“−” indicates less than 50% inhibition at 10 μM)
A11: inhibition of radioligand binding (Mouse urotensin (mUR2); mouse mUR2 membranes): − (“−” indicates less than 50% inhibition at 10 μM)
A4: inhibition of radioligand binding (Human Melanocortin (MC4); human MC4 membranes): + (“+” indicates greater than 50% inhibition at 10 μM)

COCC1OC(OCc2ccccc2)C(NC(=O)CCNC(=N)N)C(OCc2ccc3ccccc3c2)C1O (stereo not shown) [compound 191]
A1: inhibition of radioligand binding (Human δ-opioid (DOP); FlashPlate): − (“−” indicates less than 50% inhibition at 10 μM)
A2: inhibition of radioligand binding (Human κ-Opioid (KOP); filtration): − (“−” indicates less than 50% inhibition at 10 μM)
A6: inhibition of radioligand binding ([1]; [125I]-S36057, FlashPlate): + (“+” indicates greater than 50% inhibition at 10 μM)
A8: inhibition of radioligand binding (Human neurokinin (NK1); filtration): + (“+” indicates greater than 50% inhibition at 10 μM)
A9: inhibition of radioligand binding ([2]; FlashPlate): − (“−” indicates less than 50% inhibition at 10 μM)
A10: inhibition of radioligand binding (Human opioid (ORL1); FlashPlate): − (“−” indicates less than 50% inhibition at 10 μM)
A5: inhibition of radioligand binding (Human melanocortin (MC5); FlashPlate): + (“+” indicates greater than 50% inhibition at 10 μM)
A7: inhibition of radioligand binding (Human μ-opioid (MOP); FlashPlate): − (“−” indicates less than 50% inhibition at 10 μM)
A3: inhibition of radioligand binding (Human Melanocortin (MC3); FlashPlate): − (“−” indicates less than 50% inhibition at 10 μM)
A11: inhibition of radioligand binding (Mouse urotensin (mUR2); FlashPlate): − (“−” indicates less than 50% inhibition at 10 μM)
A4: inhibition of radioligand binding (Human Melanocortin (MC4); FlashPlate): + (“+” indicates greater than 50% inhibition at 10 μM)

N=C(N)NCC(=O)N[C@H]1C(OCc2ccc(Cl)cc2)O[C@H](COCc2ccc3ccccc3c2)[C@@H](O)[C@@H]1OCc1ccc2ccccc2c1 (stereo partly shown) [compound 512]
A1: inhibition of radioligand binding, human δ-opioid (DOP) (Human δ-opioid (DOP)): − (“−” indicates less than 50% inhibition at 10 μM)
A2: inhibition of radioligand binding, human κ-opioid (KOP) (Human κ-Opioid (KOP); 10 µM): − (“−” indicates less than 50% inhibition at 10 μM)
A6: inhibition of radioligand binding, human melanin-concentrating hormone (MCH1) ([1]; [125I]-S36057): + (“+” indicates greater than 50% inhibition at 10 μM)
A8: inhibition of radioligand binding, human neurokinin (NK1) (Human neurokinin (NK1)): + (“+” indicates greater than 50% inhibition at 10 μM)
A9: inhibition of radioligand binding, human neuropeptide Y (NPY-Y1) ([2]; 10 µM): − (“−” indicates less than 50% inhibition at 10 μM)
A10: inhibition of radioligand binding, human opioid (ORL1) (Human opioid (ORL1)): + (“+” indicates greater than 50% inhibition at 10 μM)
A5: inhibition of radioligand binding, human melanocortin (MC5) (Human melanocortin (MC5)): + (“+” indicates greater than 50% inhibition at 10 μM)
A7: inhibition of radioligand binding, human μ-opioid (MOP) (Human μ-opioid (MOP)): + (“+” indicates greater than 50% inhibition at 10 μM)
A3: inhibition of radioligand binding, human melanocortin (MC3) (Human Melanocortin (MC3)): + (“+” indicates greater than 50% inhibition at 10 μM)
A11: inhibition of radioligand binding, mouse urotensin (mUR2) (Mouse urotensin (mUR2)): − (“−” indicates less than 50% inhibition at 10 μM)
A4: inhibition of radioligand binding, human melanocortin (MC4) (Human Melanocortin (MC4)): + (“+” indicates greater than 50% inhibition at 10 μM)

CSC1OC(COCc2ccccc2)C(O)C(OCc2ccc(Cl)cc2)C1NC(=O)CCNC(=N)N (stereo not shown) [compound 267]
A1: inhibition of radioligand binding (Human δ-opioid (DOP); FlashPlate): − (“−” indicates less than 50% inhibition at 10 μM)
A2: inhibition of radioligand binding (Human κ-Opioid (KOP); filtration): − (“−” indicates less than 50% inhibition at 10 μM)
A6: inhibition of radioligand binding ([1]; [125I]-S36057, FlashPlate): − (“−” indicates less than 50% inhibition at 10 μM)
A8: inhibition of radioligand binding (Human neurokinin (NK1); filtration): + (“+” indicates greater than 50% inhibition at 10 μM)
A9: inhibition of radioligand binding ([2]; FlashPlate): − (“−” indicates less than 50% inhibition at 10 μM)
A10: inhibition of radioligand binding (Human opioid (ORL1); FlashPlate): − (“−” indicates less than 50% inhibition at 10 μM)
A5: inhibition of radioligand binding (Human melanocortin (MC5); FlashPlate): − (“−” indicates less than 50% inhibition at 10 μM)
A7: inhibition of radioligand binding (Human μ-opioid (MOP); FlashPlate): − (“−” indicates less than 50% inhibition at 10 μM)
A3: inhibition of radioligand binding (Human Melanocortin (MC3); FlashPlate): − (“−” indicates less than 50% inhibition at 10 μM)
A11: inhibition of radioligand binding (Mouse urotensin (mUR2); FlashPlate): − (“−” indicates less than 50% inhibition at 10 μM)
A4: inhibition of radioligand binding (Human Melanocortin (MC4); FlashPlate): + (“+” indicates greater than 50% inhibition at 10 μM)

CO[C@H]1[C@H](O)[C@@H](COCc2ccc(Cl)cc2)OC(OCCc2ccccc2)[C@@H]1NC(=O)CCCN (stereo partly shown) [compound 121]
A1 radioligand binding, percentage inhibition (Human δ-opioid (DOP)): − (“−” indicates less than 50% inhibition at 10 μM)
A2 radioligand binding, percentage inhibition (Human κ-Opioid (KOP)): − (“−” indicates less than 50% inhibition at 10 μM)
A6 radioligand binding, percentage inhibition ([1]; [125I]-S36057): − (“−” indicates less than 50% inhibition at 10 μM)
A8 radioligand binding, percentage inhibition (Human neurokinin (NK1)): + (“+” indicates greater than 50% inhibition at 10 μM)
A9 radioligand binding, percentage inhibition [2]: − (“−” indicates less than 50% inhibition at 10 μM)
A10 radioligand binding, percentage inhibition (Human opioid (ORL1)): − (“−” indicates less than 50% inhibition at 10 μM)
A5 radioligand binding, percentage inhibition (Human melanocortin (MC5)): + (“+” indicates greater than 50% inhibition at 10 μM)
A7 radioligand binding, percentage inhibition (Human μ-opioid (MOP)): − (“−” indicates less than 50% inhibition at 10 μM)
A3 radioligand binding, percentage inhibition (Human Melanocortin (MC3)): − (“−” indicates less than 50% inhibition at 10 μM)
A11 radioligand binding, percentage inhibition (Mouse urotensin (mUR2)): − (“−” indicates less than 50% inhibition at 10 μM)
A4 radioligand binding, percentage inhibition (Human Melanocortin (MC4)): − (“−” indicates less than 50% inhibition at 10 μM)
